# Patent US20150148311A1, “NON-SYSTEMIC TGR5 AGONISTS” (Ardelyx, Inc., priority 2011, published 2015)
# What was measured:
# [1] = tested on: total (t)PYY; experiment: Time course of in vivo induction of total PYY; settings: C57BL/6 male mice
# Experimental: (§1) C57BL/6 male mice on regular chow received an oral dose of vehicle (2% DMSO in 0.4% hydroxypropyl methylcellulose) or examples 176 or 178 (at 30 mg/kg). Food was removed prior to/or at the time of dosing: 4, 8, 12, and 16 h groups fasted for 7, 8, 12 and 16 h, respectively. At the appropriate time after dosing, mice were heavily anesthetized with isoflurane, and blood was collected from the left ventricle of the heart and processed to plasma as described in Example 293 for measurement of total (t) GLP-1 and, additionally, total (t)PYY (N45ZA-1; Meso Scales Discovery, Gaithersburg Md.).
# [2] = tested on: CD-1 female mice; experiment: In vivo measurement of CCK-mediated gallbladder emptying (egg yolk); settings: fasted ~16 h, oral 30 mg/kg (devazepide 1 mg/kg) 1 h before egg yolk, gallbladder weighed 15 min later (FIG. 1)
# Experimental: CD-1 female mice on regular chow had food removed (to prevent gallbladder emptying) in the late evening. The next morning (˜16 h later), groups of mice were dosed orally with vehicle (10% hydroxypropyl-β-cyclodextrin; 2 groups), devazepide in water (1 mg/kg; […]. One hour later, 1 group of vehicle-treated mice was dosed orally with saline, and all other groups were dosed orally with lyophilized egg yolk [0.75 mL; 30% (wt/vol) reconstituted in saline for induction of CCK-mediated gallbladder emptying]. Fifteen minutes later, mice were heavily anesthetized with isoflurane, the peritoneal cavity was opened and gallbladders (with contents) were carefully excised and weighed.
# [3] = target: T1, human FXR (Homo sapiens, UniProt Q96RI1); experiment: FXR counter screen, cell-based luciferase reporter assay; settings: cells expressing human FXR and FXR-responsive luciferase reporter, 0.4 to 50 μM test compound; read-out: pEC50 human FXR (converted)
# T1 construct: purchased Indigo Biosciences (State College, Pa.)
# T1 sequence (Q96RI1 1-486): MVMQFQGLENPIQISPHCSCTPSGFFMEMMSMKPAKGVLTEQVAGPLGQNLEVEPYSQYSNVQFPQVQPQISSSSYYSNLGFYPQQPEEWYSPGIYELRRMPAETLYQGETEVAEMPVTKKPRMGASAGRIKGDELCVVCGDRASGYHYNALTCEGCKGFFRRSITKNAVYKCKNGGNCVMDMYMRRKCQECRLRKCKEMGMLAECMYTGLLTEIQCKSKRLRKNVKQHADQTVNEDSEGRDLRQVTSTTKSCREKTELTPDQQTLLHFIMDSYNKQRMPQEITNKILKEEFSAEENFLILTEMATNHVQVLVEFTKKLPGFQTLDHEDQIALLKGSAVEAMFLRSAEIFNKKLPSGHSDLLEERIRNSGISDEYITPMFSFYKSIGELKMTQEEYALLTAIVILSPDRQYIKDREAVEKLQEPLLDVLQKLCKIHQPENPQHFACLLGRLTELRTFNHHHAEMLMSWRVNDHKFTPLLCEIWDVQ
# Experimental: FXR: The ability of test compounds to activate FXR (NR1H4) was measured using a cell-based assay kit obtained from Indigo Biosciences (State College, Pa.).
# [4] = tested on: total (t) GLP-1; experiment: Time course of in vivo induction of total GLP-1; settings: C57BL/6 male mice, 30 mg/kg oral, 4, 8, 12 and 16 h
# Experimental: as §1
# [5] = Compound plasma concentration, LC-MS/MS, 8 h post dose; assay type: in vivo; settings: 30 mg/kg
# How it was run: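 Blood was taken from the left ventricle 8 h after dosing, under isoflurane anesthesia, into EDTA tubes containing aprotinin and DPPIV inhibitor. Plasma was protein-precipitated with acetonitrile containing an internal standard, and supernatants were analyzed by LC-MS/MS against a plasma standard curve.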
# [6] = tested on: C57BL/6 male mice; experiment: In vivo gallbladder measurement (weight) 16 hours post-dose; settings: 30 mg/kg
# [7] = Compound concentration in gall bladder, LC-MS/MS, 8 h post dose; assay type: in vivo; settings: 30 mg/kg, mice below LLOQ / mice in group
# How it was run: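 Gallbladder with its contents excised from isoflurane-anesthetized mice 8 h after dosing and homogenized in water. Homogenate diluted 1:5, precipitated with acetonitrile and measured by LC-MS/MS. Levels interpolated from per-compound standard curves in vehicle-treated gallbladder homogenate.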
# [8] = target: T2, human IBAT (Homo sapiens, UniProt Q12908); experiment: IBAT counter screen, [3H]taurocholic acid uptake in IBAT-transfected HEK293 cells; assay type: cell-based; settings: read-out: pEC50 human IBAT (converted)
# T2 construct: expressed in transfected cells; host or cells: HEK293
# T2 sequence (Q12908 1-348): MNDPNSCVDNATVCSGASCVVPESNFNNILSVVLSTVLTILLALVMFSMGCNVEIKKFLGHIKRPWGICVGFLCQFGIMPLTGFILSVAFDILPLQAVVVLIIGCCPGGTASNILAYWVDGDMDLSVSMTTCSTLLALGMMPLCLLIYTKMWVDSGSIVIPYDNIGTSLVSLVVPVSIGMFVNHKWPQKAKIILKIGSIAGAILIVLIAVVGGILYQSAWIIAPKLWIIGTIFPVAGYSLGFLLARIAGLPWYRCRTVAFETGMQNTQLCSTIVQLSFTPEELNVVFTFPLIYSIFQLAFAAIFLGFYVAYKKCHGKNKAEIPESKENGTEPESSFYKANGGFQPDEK
# Experimental: Following a 40-min incubation, the solution was removed, and the cells were washed twice with uptake buffer. Cells were lysed by addition of 20 μL 0.1% Tween 80 followed by 100 μL scintillation fluid and counted using a TopCount (Perkin Elmer).
# [9] = tested on: mice; settings: i.p. injection, in 30 minutes, literature (Li et al. 2011); cited from earlier work
inhibition of CCK-mediated gallbladder emptying [2],EC50 [3],Number of Mice with Plasma Concentration < LLOQ ([5]; mice below LLOQ / mice in group),"concentration at 8 h ([5]; male, C57BL/6, mouse, mice, plasma, read-out: Mean Example Plasma Concentration)",Number of Mice with Gallbladder Concentration < LLOQ [7],EC50 [8],Compound,"induction of tPYY levels following a single oral dose ([1]; 30 mg/kg oral, 4, 8, 12 and 16 h)","times after dosing at which tPYY levels were significantly elevated ([1]; 30 mg/kg oral, tested 4, 8, 12 and 16 h (FIG. 2, panel B))",induction of tGLP-1 levels following a single oral dose [4],effect on gallbladder weight/body weight [6],increase of gallbladder volume [9]
did not inhibit,> 50.1 µM,8/8,< 1 ng/mL,0/8,> 25.1 µM,"O=C(CCCCc1cc(Cl)c(CN2CSC[C@H]2C(=O)N2CCN(C3CC3)c3ccccc32)cc1Cl)NC[C@H](O)[C@@H](O)[C@H](O)[C@H](O)CO [Example 178, 5-(2,5-dichloro-4-(((R)-4-(4-cyclopropyl-1,2,3,4-tetrahydroquinoxaline-1-carbonyl)thiazolidin-3-yl)methyl)phenyl)-N-((2S,3R,4R,5R)-2,3,4,5,6-pentahydroxyhexyl)pentanamide]",sustained induction,8 h,sustained induction,no significant effect,
,,,,,,CC[C@H]1[C@@H](O)[C@@H]2[C@H](C[C@H](O)[C@]3(C)[C@@H]([C@H](C)C[C@H](C)C(=O)O)CC[C@@H]23)[C@@]2(C)CC[C@@H](O)C[C@@H]12 [INT-777],,,,,approximately two-fold
